IC50 data for 7 compounds are collected here from the Kinase Knowledgebase extract (Sharma et al. 2016).

A word on the IC50: it is the midpoint of a concentration-inhibition curve.

Some targets named below: CDK2 (human) (UniProt P24941); MAPK14 (human) (UniProt Q16539); PIK3CA (human) (UniProt P42336); PIK3CG (human) (UniProt P48736).
Common to all, as to test: Enzyme Assay

Sequence of MAPK14 (human) (Q16539 whole entry, looked up): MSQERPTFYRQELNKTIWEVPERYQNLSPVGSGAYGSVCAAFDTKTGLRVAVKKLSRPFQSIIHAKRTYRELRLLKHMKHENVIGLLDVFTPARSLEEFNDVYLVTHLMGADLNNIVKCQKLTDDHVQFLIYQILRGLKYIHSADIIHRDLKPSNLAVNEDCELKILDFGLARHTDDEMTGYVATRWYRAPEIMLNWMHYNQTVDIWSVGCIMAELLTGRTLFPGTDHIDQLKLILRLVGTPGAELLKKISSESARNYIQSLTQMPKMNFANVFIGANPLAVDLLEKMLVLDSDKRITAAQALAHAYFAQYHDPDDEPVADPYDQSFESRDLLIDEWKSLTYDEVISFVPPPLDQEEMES
Sequence of PIK3CA (human) (P42336 whole entry, looked up): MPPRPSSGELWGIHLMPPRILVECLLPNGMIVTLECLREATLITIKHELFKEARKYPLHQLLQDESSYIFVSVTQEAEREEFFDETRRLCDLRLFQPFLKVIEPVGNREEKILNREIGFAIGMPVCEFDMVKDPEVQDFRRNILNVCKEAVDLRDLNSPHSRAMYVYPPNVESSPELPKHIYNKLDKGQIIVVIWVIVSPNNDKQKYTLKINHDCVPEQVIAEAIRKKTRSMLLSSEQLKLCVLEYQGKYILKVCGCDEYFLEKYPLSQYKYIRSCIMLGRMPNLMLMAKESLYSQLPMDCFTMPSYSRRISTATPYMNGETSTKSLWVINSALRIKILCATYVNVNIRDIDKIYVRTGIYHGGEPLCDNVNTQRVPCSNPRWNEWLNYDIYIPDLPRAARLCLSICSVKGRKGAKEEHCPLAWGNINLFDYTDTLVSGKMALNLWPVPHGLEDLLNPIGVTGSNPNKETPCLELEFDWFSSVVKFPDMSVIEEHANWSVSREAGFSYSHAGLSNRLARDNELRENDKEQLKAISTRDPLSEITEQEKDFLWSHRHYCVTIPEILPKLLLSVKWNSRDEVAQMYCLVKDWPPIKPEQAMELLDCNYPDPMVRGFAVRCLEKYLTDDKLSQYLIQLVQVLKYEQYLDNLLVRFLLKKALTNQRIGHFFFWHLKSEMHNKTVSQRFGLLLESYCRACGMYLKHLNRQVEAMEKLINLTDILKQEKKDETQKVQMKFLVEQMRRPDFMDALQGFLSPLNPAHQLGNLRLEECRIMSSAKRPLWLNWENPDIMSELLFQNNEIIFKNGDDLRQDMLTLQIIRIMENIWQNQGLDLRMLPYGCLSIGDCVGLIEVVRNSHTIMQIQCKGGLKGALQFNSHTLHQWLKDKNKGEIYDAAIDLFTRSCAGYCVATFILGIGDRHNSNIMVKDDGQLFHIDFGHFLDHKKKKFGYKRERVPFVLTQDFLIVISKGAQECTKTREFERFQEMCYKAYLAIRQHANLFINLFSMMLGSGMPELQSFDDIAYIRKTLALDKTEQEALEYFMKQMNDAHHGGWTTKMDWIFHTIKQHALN
Sequence of PIK3CG (human) (P48736 whole entry, looked up): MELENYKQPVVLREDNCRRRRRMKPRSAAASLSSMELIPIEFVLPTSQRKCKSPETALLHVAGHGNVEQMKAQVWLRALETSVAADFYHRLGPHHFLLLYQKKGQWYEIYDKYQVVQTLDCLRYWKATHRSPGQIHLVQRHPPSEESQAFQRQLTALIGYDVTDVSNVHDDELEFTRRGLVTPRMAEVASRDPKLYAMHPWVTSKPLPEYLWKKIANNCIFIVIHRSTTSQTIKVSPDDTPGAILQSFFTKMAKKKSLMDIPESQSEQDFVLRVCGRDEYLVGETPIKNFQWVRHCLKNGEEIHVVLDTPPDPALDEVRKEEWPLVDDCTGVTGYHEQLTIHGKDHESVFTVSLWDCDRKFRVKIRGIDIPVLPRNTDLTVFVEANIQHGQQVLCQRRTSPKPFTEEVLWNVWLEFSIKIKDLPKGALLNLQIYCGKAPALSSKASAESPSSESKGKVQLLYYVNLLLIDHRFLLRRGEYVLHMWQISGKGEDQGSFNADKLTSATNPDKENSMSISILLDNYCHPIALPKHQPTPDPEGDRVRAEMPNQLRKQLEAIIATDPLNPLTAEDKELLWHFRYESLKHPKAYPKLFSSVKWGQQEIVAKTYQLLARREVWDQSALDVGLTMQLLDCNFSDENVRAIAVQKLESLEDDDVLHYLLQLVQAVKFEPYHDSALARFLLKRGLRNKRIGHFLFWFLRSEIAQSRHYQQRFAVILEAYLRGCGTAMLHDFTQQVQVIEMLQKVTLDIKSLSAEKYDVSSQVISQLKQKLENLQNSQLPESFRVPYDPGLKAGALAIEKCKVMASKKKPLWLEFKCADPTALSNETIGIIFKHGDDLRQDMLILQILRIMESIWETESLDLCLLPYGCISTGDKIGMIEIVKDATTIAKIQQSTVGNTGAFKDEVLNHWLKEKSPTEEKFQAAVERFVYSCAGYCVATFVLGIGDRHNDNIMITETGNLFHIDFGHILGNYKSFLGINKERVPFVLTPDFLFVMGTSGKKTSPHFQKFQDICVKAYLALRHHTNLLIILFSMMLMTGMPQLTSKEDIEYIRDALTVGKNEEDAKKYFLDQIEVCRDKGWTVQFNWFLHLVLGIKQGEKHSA

`COc1cc2c(cc1OCC1CCCCN1C)ncc1c3ccc(C#N)cc3[nH]c21` (stereo not drawn): the figures for the IC50 on CDK2 (human) and on MAPK14 (human) were 1100 nM and over 50 µM, respectively.
Regarding `COc1cc2c(cc1OCCN(C)C)ncc1c3ccc(C#N)cc3[nH]c21`, the half-inhibitory concentration (IC50) was 1010 nM at CDK2 (human) and over 49.4 µM against MAPK14 (human).
On to `COc1cc2c(cc1OCCCN(C)C)ncc1c3ccc(C#N)cc3[nH]c21`, for which the IC50 at PIK3CA (human) was over 7250 nM; against CDK2 (human) it was 4350 nM; against MAPK14 (human) it was over 36.2 µM; against PIK3CG (human), over 7.25 µM.
With `COc1cc2c(cc1OC1CCN(C)CC1)ncc1c3ccc(C#N)cc3[nH]c21`, the half-inhibitory concentration (IC50) at CDK2 (human) is 5700 nM; at MAPK14 (human), 6.82 µM.
For `COCCOc1cc2ncc3c4ccc(C#N)cc4[nH]c3c2cc1OC`, the half-maximal inhibitory concentration (IC50) against CDK2 (human) was 1210 nM; against MAPK14 (human), over 45.6 µM.
`COc1cc2c(cc1OCCCN1CCN(C)CC1)ncc1c3ccc(C#N)cc3[nH]c21`: the results for the IC50 against CDK2 (human) and on MAPK14 (human) were 479 nM and over 47 µM, respectively.
`COc1cc2ncc3c4ccc(C#N)cc4[nH]c3c2cc1OC`: the IC50 against PIK3CA (human) was 1700 nM; on CDK2 (human) it was 599 nM; on MAPK14 (human), over 88.8 µM; against PIK3CG (human), 3.4 µM.
